# In the CheMixHub viscosity set:
# ± gives the uncertainty stated by the source.
# Assay: xn = mol fraction of the nth substance listed
smiles,measurement,setting,value
CC1=CCC(=C(C)C)CC1 + Clc1ccccc1,viscosity,"303.15 K, 101 kPa, x1 = 0.0668",0.729 ± 0.015 mPa·s
same,viscosity,"303.15 K, 101 kPa, x1 = 0.1386",0.761 ± 0.017 mPa·s
same,viscosity,"303.15 K, 101 kPa, x1 = 0.2162",0.798 ± 0.019 mPa·s
same,viscosity,"303.15 K, 101 kPa, x1 = 0.3003",0.836 ± 0.022 mPa·s
same,viscosity,"303.15 K, 101 kPa, x1 = 0.3917",0.874 ± 0.025 mPa·s
same,viscosity,"303.15 K, 101 kPa, x1 = 0.4913",0.908 ± 0.029 mPa·s
same,viscosity,"303.15 K, 101 kPa, x1 = 0.6004",0.934 ± 0.034 mPa·s
same,viscosity,"303.15 K, 101 kPa, x1 = 0.7203",0.955 ± 0.04 mPa·s
same,viscosity,"303.15 K, 101 kPa, x1 = 0.8528",0.974 ± 0.046 mPa·s
same,viscosity,"308.15 K, 101 kPa, x1 = 0.0668",0.692 ± 0.015 mPa·s
same,viscosity,"308.15 K, 101 kPa, x1 = 0.1386",0.722 ± 0.016 mPa·s
same,viscosity,"308.15 K, 101 kPa, x1 = 0.2162",0.756 ± 0.018 mPa·s
same,viscosity,"308.15 K, 101 kPa, x1 = 0.3003",0.791 ± 0.02 mPa·s
same,viscosity,"308.15 K, 101 kPa, x1 = 0.3917",0.826 ± 0.024 mPa·s
same,viscosity,"308.15 K, 101 kPa, x1 = 0.4913",0.858 ± 0.028 mPa·s
same,viscosity,"308.15 K, 101 kPa, x1 = 0.6004",0.881 ± 0.032 mPa·s
same,viscosity,"308.15 K, 101 kPa, x1 = 0.7203",0.897 ± 0.037 mPa·s
same,viscosity,"308.15 K, 101 kPa, x1 = 0.8528",0.913 ± 0.043 mPa·s
same,viscosity,"313.15 K, 101 kPa, x1 = 0.0668",0.649 ± 0.014 mPa·s
same,viscosity,"313.15 K, 101 kPa, x1 = 0.1386",0.677 ± 0.015 mPa·s
same,viscosity,"313.15 K, 101 kPa, x1 = 0.2162",0.709 ± 0.017 mPa·s
same,viscosity,"313.15 K, 101 kPa, x1 = 0.3003",0.743 ± 0.019 mPa·s
same,viscosity,"313.15 K, 101 kPa, x1 = 0.3917",0.775 ± 0.022 mPa·s
same,viscosity,"313.15 K, 101 kPa, x1 = 0.4913",0.804 ± 0.026 mPa·s
same,viscosity,"313.15 K, 101 kPa, x1 = 0.6004",0.825 ± 0.03 mPa·s
same,viscosity,"313.15 K, 101 kPa, x1 = 0.7203",0.839 ± 0.035 mPa·s
same,viscosity,"313.15 K, 101 kPa, x1 = 0.8528",0.853 ± 0.041 mPa·s
CCc1ccccc1 + CCCO,viscosity,"303 K, 101.33 kPa, x2 = 0.3",0.646 ± 0.006 mPa·s
same,viscosity,"303 K, 101.33 kPa, x2 = 0.5",0.826 ± 0.008 mPa·s
same,viscosity,"303 K, 101.33 kPa, x2 = 0.7",1.01 ± 0.009 mPa·s
same,viscosity,"303 K, 101.33 kPa, x2 = 0.9",1.335 ± 0.012 mPa·s
same,viscosity,"313 K, 101.33 kPa, x2 = 0.3",0.561 ± 0.005 mPa·s
same,viscosity,"313 K, 101.33 kPa, x2 = 0.5",0.697 ± 0.007 mPa·s
same,viscosity,"313 K, 101.33 kPa, x2 = 0.7",0.839 ± 0.008 mPa·s
same,viscosity,"313 K, 101.33 kPa, x2 = 0.9",1.084 ± 0.01 mPa·s
same,viscosity,"323 K, 101.33 kPa, x2 = 0.3",0.494 ± 0.005 mPa·s
same,viscosity,"323 K, 101.33 kPa, x2 = 0.5",0.598 ± 0.006 mPa·s
same,viscosity,"323 K, 101.33 kPa, x2 = 0.7",0.7 ± 0.007 mPa·s
same,viscosity,"323 K, 101.33 kPa, x2 = 0.9",0.886 ± 0.008 mPa·s
Clc1cccc2ccccc12 + Cc1cc(C)cc(C)c1,viscosity,"298.15 K, 101.33 kPa, x1 = 0.0983",0.688 ± 0.01 mPa·s
same,viscosity,"298.15 K, 101.33 kPa, x1 = 0.2041",0.807 ± 0.014 mPa·s
same,viscosity,"298.15 K, 101.33 kPa, x1 = 0.2992",0.929 ± 0.018 mPa·s
same,viscosity,"298.15 K, 101.33 kPa, x1 = 0.3988",1.086 ± 0.023 mPa·s
same,viscosity,"298.15 K, 101.33 kPa, x1 = 0.4984",1.251 ± 0.03 mPa·s
same,viscosity,"298.15 K, 101.33 kPa, x1 = 0.6008",1.476 ± 0.04 mPa·s
same,viscosity,"298.15 K, 101.33 kPa, x1 = 0.6999",1.706 ± 0.052 mPa·s
same,viscosity,"298.15 K, 101.33 kPa, x1 = 0.8017",2.019 ± 0.068 mPa·s
same,viscosity,"298.15 K, 101.33 kPa, x1 = 0.9016",2.376 ± 0.088 mPa·s
same,viscosity,"303.15 K, 101.33 kPa, x1 = 0.0983",0.644 ± 0.01 mPa·s
same,viscosity,"303.15 K, 101.33 kPa, x1 = 0.2041",0.753 ± 0.013 mPa·s
same,viscosity,"303.15 K, 101.33 kPa, x1 = 0.2992",0.863 ± 0.016 mPa·s
same,viscosity,"303.15 K, 101.33 kPa, x1 = 0.3988",1.003 ± 0.022 mPa·s
same,viscosity,"303.15 K, 101.33 kPa, x1 = 0.4984",1.15 ± 0.028 mPa·s
same,viscosity,"303.15 K, 101.33 kPa, x1 = 0.6008",1.346 ± 0.037 mPa·s
same,viscosity,"303.15 K, 101.33 kPa, x1 = 0.6999",1.551 ± 0.047 mPa·s
same,viscosity,"303.15 K, 101.33 kPa, x1 = 0.8017",1.826 ± 0.062 mPa·s
same,viscosity,"303.15 K, 101.33 kPa, x1 = 0.9016",2.138 ± 0.079 mPa·s
same,viscosity,"308.15 K, 101.33 kPa, x1 = 0.0983",0.605 ± 0.009 mPa·s
same,viscosity,"308.15 K, 101.33 kPa, x1 = 0.2041",0.703 ± 0.012 mPa·s
same,viscosity,"308.15 K, 101.33 kPa, x1 = 0.2992",0.803 ± 0.015 mPa·s
same,viscosity,"308.15 K, 101.33 kPa, x1 = 0.3988",0.927 ± 0.02 mPa·s
same,viscosity,"308.15 K, 101.33 kPa, x1 = 0.4984",1.062 ± 0.026 mPa·s
same,viscosity,"308.15 K, 101.33 kPa, x1 = 0.6008",1.239 ± 0.034 mPa·s
same,viscosity,"308.15 K, 101.33 kPa, x1 = 0.6999",1.419 ± 0.043 mPa·s
same,viscosity,"308.15 K, 101.33 kPa, x1 = 0.8017",1.661 ± 0.056 mPa·s
same,viscosity,"308.15 K, 101.33 kPa, x1 = 0.9016",1.935 ± 0.071 mPa·s
Clc1ccccc1 + CCCCCO,viscosity,"293.15 K, 101.33 kPa, x2 = 0.0511",0.816 ± 0.011 mPa·s
same,viscosity,"293.15 K, 101.33 kPa, x2 = 0.1017",0.852 ± 0.011 mPa·s
same,viscosity,"293.15 K, 101.33 kPa, x2 = 0.1449",0.892 ± 0.012 mPa·s
same,viscosity,"293.15 K, 101.33 kPa, x2 = 0.198",0.936 ± 0.012 mPa·s
same,viscosity,"293.15 K, 101.33 kPa, x2 = 0.2665",1.017 ± 0.013 mPa·s
same,viscosity,"293.15 K, 101.33 kPa, x2 = 0.3688",1.195 ± 0.015 mPa·s
same,viscosity,"293.15 K, 101.33 kPa, x2 = 0.4687",1.387 ± 0.017 mPa·s
same,viscosity,"293.15 K, 101.33 kPa, x2 = 0.5602",1.637 ± 0.02 mPa·s
same,viscosity,"293.15 K, 101.33 kPa, x2 = 0.5789",1.697 ± 0.02 mPa·s
same,viscosity,"293.15 K, 101.33 kPa, x2 = 0.7339",2.339 ± 0.027 mPa·s
same,viscosity,"293.15 K, 101.33 kPa, x2 = 0.8618",3.062 ± 0.035 mPa·s
same,viscosity,"293.15 K, 101.33 kPa, x2 = 0.9524",3.666 ± 0.041 mPa·s
CCc1ccccc1 + COCCO,viscosity,"298.15 K, 101 kPa, x2 = 0.0558",0.65 ± 0.011 mPa·s
same,viscosity,"298.15 K, 101 kPa, x2 = 0.1525",0.679 ± 0.012 mPa·s
same,viscosity,"298.15 K, 101 kPa, x2 = 0.2511",0.717 ± 0.012 mPa·s
same,viscosity,"298.15 K, 101 kPa, x2 = 0.3504",0.766 ± 0.013 mPa·s
same,viscosity,"298.15 K, 101 kPa, x2 = 0.4525",0.831 ± 0.014 mPa·s
same,viscosity,"298.15 K, 101 kPa, x2 = 0.5021",0.869 ± 0.015 mPa·s
same,viscosity,"298.15 K, 101 kPa, x2 = 0.5522",0.911 ± 0.015 mPa·s
same,viscosity,"298.15 K, 101 kPa, x2 = 0.6499",1.008 ± 0.017 mPa·s
same,viscosity,"298.15 K, 101 kPa, x2 = 0.75",1.131 ± 0.018 mPa·s
same,viscosity,"298.15 K, 101 kPa, x2 = 0.853",1.291 ± 0.021 mPa·s
same,viscosity,"298.15 K, 101 kPa, x2 = 0.9546",1.488 ± 0.024 mPa·s
same,viscosity,"308.15 K, 101 kPa, x2 = 0.0558",0.548 ± 0.01 mPa·s
same,viscosity,"308.15 K, 101 kPa, x2 = 0.1525",0.577 ± 0.01 mPa·s
same,viscosity,"308.15 K, 101 kPa, x2 = 0.2511",0.612 ± 0.011 mPa·s
same,viscosity,"308.15 K, 101 kPa, x2 = 0.3504",0.655 ± 0.011 mPa·s
same,viscosity,"308.15 K, 101 kPa, x2 = 0.4525",0.708 ± 0.012 mPa·s
same,viscosity,"308.15 K, 101 kPa, x2 = 0.5021",0.738 ± 0.013 mPa·s
same,viscosity,"308.15 K, 101 kPa, x2 = 0.5522",0.771 ± 0.013 mPa·s
same,viscosity,"308.15 K, 101 kPa, x2 = 0.6499",0.844 ± 0.014 mPa·s
same,viscosity,"308.15 K, 101 kPa, x2 = 0.75",0.933 ± 0.016 mPa·s
same,viscosity,"308.15 K, 101 kPa, x2 = 0.853",1.043 ± 0.017 mPa·s
same,viscosity,"308.15 K, 101 kPa, x2 = 0.9546",1.175 ± 0.02 mPa·s
